Data set [1] can be described thus: Cytotoxicity panel, HepG2. To be noted: human, HepG2 cells.
Data set [2] is described as follows: Toxicity in Vero cells (Dengue assay). To be noted: African green monkey.
Data set [3] can be described thus: Toxicity in Huh-7 cells (Dengue assay). To be noted: human, Huh-7 cells.
Data set [4] in a line: Cytotoxicity in GT1b replicon cells. It counts as cell-based.
A short description of data set [5]: Cytotoxicity panel, CEM. As to conditions: human, CEM cells, Cytotoxicity (CC50 uM) CEM.
Data set [6] can be described thus: Cytotoxicity panel, Huh-7. As to conditions: human, Huh-7 cells, Cytotoxicity (CC50 uM) Huh-7, Huh-7.
Data set [7] in a line: Cellular toxicity in parallel with HCV replicon assay (XTT). As to conditions: human.
Data set [8] relates to RSV. Put plainly: Antiviral activity, RSV. The format is cell-based. As to conditions: human respiratory syncytial virus.
Data set [9] concerns RVFV. In words: microbe, parasite or virus in culture. It counts as cell-based. As to conditions: Rift Valley fever virus, read-out: RVFV EC50.
Data set [10] concerns Influenza A H5N1 (low path). In words: microbe, parasite or virus in culture. It counts as cell-based. To be noted: H5N1, read-out: Influenza A H5N1 (low path) EC50.
Data set [11] relates to CHIK Virus. Put plainly: Antiviral activity, CHIK Virus. The format is cell-based. As to conditions: Chikungunya virus, read-out: CHIK Virus EC50.
The subject of data set [12] is VEEV. In words: microbe, parasite or virus in culture. The format is cell-based. As to conditions: Venezuelan equine encephalitis virus, read-out: VEEV EC50.
For data set [13], the system named is Influenza A H1N1. In words: Antiviral activity, Influenza A H1N1. It counts as cell-based. As to conditions: Influenza A virus, H1N1; read-out: Influenza A H1N1 EC50.
Data set [14] concerns SARS. In words: microbe, parasite or virus in culture. As to conditions: Severe acute respiratory syndrome coronavirus, read-out: SARS EC50.
Data set [15] relates to Influenza A H3N2. Put plainly: Antiviral activity, Influenza A H3N2. The format is cell-based. As to conditions: Influenza A virus, H3N2; read-out: Influenza A H3N2 EC50.
The subject of data set [16] is Influenza B. Put plainly: Antiviral activity, Influenza B. It counts as cell-based. To be noted: Influenza B virus; read-out: Influenza B EC50.
Data set [17] relates to Measles. Put plainly: Antiviral activity, Measles. The format is cell-based, measles virus. To be noted: Measles morbillivirus.
Data set [18] concerns West Nile Virus. Put plainly: Antiviral activity, West Nile Virus. The format is cell-based. To be noted: read-out: West Nile Virus EC50.
The test system of data set [19] is Tacaribe Virus. Put plainly: microbe, parasite or virus in culture. As to conditions: Mammarenavirus tacaribeense, read-out: Tacaribe Virus EC50. The format is cell-based.
The test system of data set [20] is Dengue Virus. In words: Antiviral activity, Dengue Virus. It counts as cell-based.
The test system of data set [21] is Dengue Type 2. In words: Anti-Dengue virus cytoprotection assay, Huh-7 cells. As to conditions: Huh-7, read-out: Dengue Type 2 Huh-7 Cells (EC50 uM).
Data set [22] in a line: Cytotoxicity panel, BxPC3. To be noted: human, BxPC3 cells.
The nature of data set [23]: Cytotoxicity panel, H9c. The format is cell-based. As to conditions: rat, H9c cells.
Data set [24] in a line: Cytotoxicity panel, A204. As to conditions: human, A204 cells. It counts as cell-based.

In data set [1], `C[C@@]1(O)C(O)[C@@H](CO)O[C@H]1n1ccc(=S)[nH]c1=O` (some centres unmarked) [ENUC-01916-1] showed a CC50 of over 400 µM.
For the compound `C[C@@]1(O)C(O)[C@@H](CO)O[C@H]1n1ccc(=O)[nH]c1=S` (some centres unmarked) [ENUC-01850], the CC50 in data set [2] and in data set [3] was over 100 µM throughout.
With `CC(C)OC(=O)[C@H](C)N[P@](=O)(OC[C@H]1O[C@@H](n2ccc(=O)[nH]c2=O)[C@](C)(F)C1O)Oc1ccccc1` (some centres unmarked) [GS-7977, reference compound], the CC50 in data set [4] is over 2 µM.
Turning to `CC(C)OC(=O)[C@H](C)N[P@@](=O)(OC[C@H]1O[C@@H](n2ccc(=O)[nH]c2=S)[C@](C)(O)C1O)Oc1ccccc1` (some centres unmarked) [ENUC-02024-1], the CC50 in [1], in data set [5] and in data set [6] was over 400 µM each time.
Take `CC(C)OC(=O)[C@H](C)NP(=O)(OC[C@H]1O[C@@H](n2ccc(=O)[nH]c2=S)[C@@H](O)C1O)Oc1ccccc1` (some centres unmarked) [ENUC-02072-1]: the CC50 in data set [1], in [5] and in data set [6] was over 400 µM throughout.
With `CC(C)OC(=O)[C@H](C)NP(=O)(OC[C@H]1O[C@@H](n2ccc(=O)[nH]c2=S)[C@@H](O)C1O)Oc1ccccc1` (some centres unmarked) [ENUC-02071-2], the half-maximal cytotoxic concentration (CC50) at 72 h in [7] is over 100 µM.
As for `CC(C)OC(=O)[C@H](C)NP(=O)(OC[C@H]1O[C@@H](n2ccc(=O)[nH]c2=[Se])[C@](C)(O)C1O)Oc1ccccc1` (some centres unmarked) [ENUC-02058-1], the CC50 was over 400 µM in data set [1] and over 100 µM in data set [6].
Turning to `Cc1cn([C@@H]2O[C@H](CO)C(O)[C@@H]2F)c(=O)nc1N` (some centres unmarked) [EFVX-01855], the EC50 is over 100 µM in data set [8]; over 100 µg/mL in data set [9]; over 100 µM in data set [10]; over 100 µg/mL in data set [11]; over 100 µg/mL in data set [12]; over 100 µM in data set [13]. The EC50 was over 100 µM in data set [14]; over 100 µM in [15]; over 100 µM in data set [16]; over 100 µM in data set [17]; over 100 µg/mL in data set [18]; over 100 µg/mL in [19]. The same compound gave an EC50 in data set [20] of over 100 µg/mL.
Take `CNc1ccn([C@@H]2O[C@H](CO)C(O)[C@@H]2F)c(=O)n1` (some centres unmarked) [EFVX-01853]: the EC50 in data set [8] was over 100 µM; in data set [9], over 100 µg/mL; in [10], over 100 µM; in data set [11] it was over 100 µg/mL; in data set [12], over 100 µg/mL; in [13], over 100 µM. The EC50 was over 100 µM in data set [14]; over 100 µM in [15]; over 100 µM in data set [16]; over 100 µM in data set [17]; over 100 µg/mL in data set [18]; over 100 µg/mL in [19]. Also, the EC50 in data set [20] is over 100 µg/mL.
`CC(C)OC(=O)[C@H](C)N[P@@](=O)(OC[C@H]1O[C@@H](n2ccc(=O)[nH]c2=O)[C@](C)(F)C1O)Oc1ccccc1` (some centres unmarked) [ENUC-02026-1]: the CC50 in data set [1], in data set [5] and in data set [6] was over 400 µM throughout.
With `CC(C)OC(=O)[C@H](C)NP(=O)(OC[C@@]1(N=[N+]=[N-])O[C@@H](n2ccc(=S)[nH]c2=O)[C@@H](O)C1O)Oc1ccccc1` (some centres unmarked) [ENUC-02083-1], the figures for the CC50 in data set [1], in data set [5] and in data set [3] were over 400 µM, 229 µM and over 100 µM, respectively. In addition, in data set [21], the concentration for a half-maximal effect (EC50) worked out at 4.82 µM. In [7], this compound registered a CC50 at 72 h of over 100 µM.
For `Nc1nc(=O)n([C@@H]2O[C@H](CO)C(O)[C@@H]2F)cc1CO` (some centres unmarked) [EFVX-01856], the EC50 was over 100 µM in data set [8]; over 100 µg/mL in [9]; over 100 µM in data set [10]; over 100 µg/mL in data set [11]; over 100 µg/mL in [12]; over 100 µM in data set [13]. Moreover, the EC50 was over 100 µM in data set [14]; over 100 µM in data set [15]; over 100 µM in [16]; over 100 µM in [17]; over 100 µg/mL in [18]; over 100 µg/mL in [19]. Moreover, the half-maximal effective concentration (EC50) in [20] was over 100 µg/mL.
`CC(C)OC(=O)[C@H](C)NP(=O)(OC[C@H]1O[C@@H](n2ccc(=S)[nH]c2=O)[C@](C)(O)C1O)Oc1ccccc1` (some centres unmarked) [ENUC-01920-1]: the CC50 in data set [1] and in [6] was over 400 µM each time.
With `CC(C)OC(=O)[C@H](C)N[P@](=O)(OC[C@H]1O[C@@H](n2ccc(=O)[nH]c2=O)[C@](C)(F)C1O)Oc1ccccc1` (some centres unmarked) [ENUC-02025-1], the results for the CC50 in [1], in data set [5] and in data set [6] were 365 µM, over 400 µM and 279 µM, respectively.
Take `CN(C)c1ccn([C@@H]2O[C@H](CO)C(O)[C@@H]2F)c(=O)n1` (some centres unmarked) [EFVX-01854]: the EC50 in data set [8] was over 100 µM; in data set [9], over 100 µg/mL; in [10], over 100 µM; in data set [11], over 100 µg/mL; in [12], over 100 µg/mL; in data set [13] it was over 100 µM. Moreover, the EC50 was over 100 µM in data set [14]; over 100 µM in data set [15]; over 100 µM in data set [16]; over 100 µM in data set [17]; over 100 µg/mL in data set [18]; over 100 µg/mL in data set [19]. The EC50 in data set [20] was over 100 µg/mL.
Take `C[C@H](NP(=O)(O)OC[C@H]1O[C@@H](n2ccc(=O)[nH]c2=S)[C@](C)(O)C1O)C(=O)O` (some centres unmarked) [ENUC-01997-1]: the CC50 in data set [1], in data set [5] and in [6] was over 400 µM each time. This compound displayed a CC50 at 72 h in data set [7] of over 100 µM.
With `C[C@@]1(O)C(O)[C@@H](COP(=O)(O)O)O[C@H]1n1ccc(=O)[nH]c1=S` (some centres unmarked) [ENUC-01984-1], the CC50 in [1], in data set [5] and in [6] was over 400 µM throughout. Further, the CC50 at 72 h in data set [7] is over 100 µM.
`O=c1[nH]c(=S)ccn1[C@@H]1O[C@H](CO)C(O)[C@@H]1O` (some centres unmarked) [ENUC-01893-1]: the midpoint of cytotoxicity in data set [7], the CC50 at 72 h, lay at 45.7 µM.
On to `CC(C)OC(=O)[C@H](C)NP(=O)(OC[C@H]1O[C@@H](n2ccc(=O)[nH]c2=S)[C@](C)(O)C1O)Oc1ccccc1` (some centres unmarked) [ENUC-01911-1], for which the 50% cytotoxic concentration (CC50) was over 400 µM in [1], over 400 µM in data set [6], over 300 µM in [22] and over 200 µM in [23].
For the compound `C[C@@]1(O)C(O)[C@@H](CO)O[C@H]1n1ccc(=O)[nH]c1=S` (some centres unmarked) [ENUC-01850-1], the half-maximal cytotoxic concentration (CC50) in [1] is over 400 µM; in data set [6] it was over 100 µM; in data set [22], over 100 µM.
For the compound `CC(C)OC(=O)[C@H](C)NP(=O)(OC[C@H]1O[C@@H](n2ccc(=O)[nH]c2=S)[C@@H](C)C1O)Oc1ccccc1` (some centres unmarked) [ENUC-02078-1], the CC50 was over 400 µM in data set [1], 259 µM in data set [5], over 100 µM in [3] and over 400 µM in data set [6]. Moreover, the EC50 in data set [21] worked out at 6.07 µM.
`C#C[C@]1(COP(=O)(N[C@@H](C)C(=O)OC(C)C)Oc2ccccc2)O[C@@H](n2ccc(=O)[nH]c2=S)[C@@H](O)C1O` (some centres unmarked) [ENUC-02069-1]: the CC50 in data set [1] was over 400 µM; in data set [5] it was over 400 µM; in data set [3] it was over 100 µM; in data set [6], over 400 µM. Also, the concentration for a half-maximal effect (EC50) in data set [21] was over 100 µM.
On to `C[C@@]1(F)C(O)[C@@H](CO)O[C@H]1n1ccc(=S)[nH]c1=O` (some centres unmarked) [ENUC-01946-1], for which the CC50 in [1], in [5] and in data set [6] was over 400 µM each time.
Turning to `CC(C)OC(=O)[C@H](C)NP(=O)(OC[C@H]1O[C@@H](n2ccc(=O)[nH]c2=O)[C@](C)(O)C1O)Oc1ccccc1` (some centres unmarked) [ENUC-01982-1], the CC50 in data set [1] was found to be 159 µM; in data set [24], 124 µM; in data set [5], 150 µM; in data set [6], 65 µM; in data set [22], 157 µM; in [23], 31 µM.

These data come from US11857560B2, “Pharmaceutical compositions comprising substituted nucleotides and nucleosides for treating viral infections” (priority 2013, dated 2024).
